According to US10710988B2, “Piperazine derivative” (Astellas Pharma Inc., priority 2016, dated 2020):
Where two headings read alike, the source gives them in different places.

Columns and labels:
[1] = test system: phenylephrine-induced urethral pressure increase; assay: Effect on rat urethral pressure (phenylephrine-induced urethral pressure increase); format: in vivo; conditions: read-out: ID40
Protocol: The present Test Example was performed by partially modifying the technique reported as a testing system for evaluating a urethral resistance-reducing action (European Journal of Pharmacology, 679, 127-131 (2012)). Male Wistar rats (Charles River Laboratories Japan, Inc.) were anesthetized with urethane (1.2 g/kg ip), and immobilized in a supine position. The midline incision was performed in the lower abdominal portion such that the bladder was exposed. The bladder apex was incised, and from the incision site, a microchip pressure transducer catheter (3.5 Fr, Millar, Inc) was inserted and implanted into the inside of the urethra. In addition, a cannula for drug administration was implanted into the femoral vein. After the urethral pressure was stabilized, phenylephrine hydrochloride (Sigma-Aldrich Co. LLC., 30 μg/kg) was intravenously administered to induce an increase in the urethral pressure. At an interval of about 30 minutes, the above operation was repeated twice or more so as to confirm the stability of the phenylephrine hydrochloride-induced urethral pressure increasing reaction. Then, a test compound (dissolved in 20% dimethyl acetamide, 10% Cremophor (registered trademark), and 70% physiological saline) was intravenously administered, and after 5 minutes, phenylephrine hydrochloride was administered. The procedure of the administration of the test compound and the administration of phenylephrine hydrochloride was repeated at an interval of about 30 minutes, and 3 to 5 doses of the test compound was evaluated (the test compound was administered at increasing doses). The obtained data was introduced into a personal computer through PowerLab (registered trademark) (ADInstruments, Inc.) and analyzed using LabChart (registered trademark) (ADInstruments, Inc.). For the evaluation, the value (AUC value, mmHg-s) of the area under the urethral pressure for one minute before and after administration of phenylephrine hydrochloride was determined to calculate the difference (ΔAUC value) between the AUC value before the administration of phenylephrine hydrochloride and the AUC value after the administration of phenylephrine hydrochloride. The ΔAUC value obtained before administering the test compound was regarded as being 100%, and based on this, the ratio (reaction rate) of the ΔAUC value of the test compound at each dose was calculated. The dose at which the obtained reaction rate became 60% (40% as an inhibition rate) was defined as ID40, and the ID40 values of the test compounds were calculated by non-linear regression.

[2] = molecular target: T1, rat MC4 receptor (Rattus norvegicus, UniProt P70596); assay: Rat MC4 receptor activation, cAMP production in cells transiently expressing the receptor; format: cell-based; conditions: FreeStyle 293-F cells expressing rat MC4 receptor, α-MSH maximum = 100%
T1 construct: expressed in transfected cells; host or cells: FreeStyle 293-F cells (transient, electroporation)
T1 sequence (P70596 whole entry): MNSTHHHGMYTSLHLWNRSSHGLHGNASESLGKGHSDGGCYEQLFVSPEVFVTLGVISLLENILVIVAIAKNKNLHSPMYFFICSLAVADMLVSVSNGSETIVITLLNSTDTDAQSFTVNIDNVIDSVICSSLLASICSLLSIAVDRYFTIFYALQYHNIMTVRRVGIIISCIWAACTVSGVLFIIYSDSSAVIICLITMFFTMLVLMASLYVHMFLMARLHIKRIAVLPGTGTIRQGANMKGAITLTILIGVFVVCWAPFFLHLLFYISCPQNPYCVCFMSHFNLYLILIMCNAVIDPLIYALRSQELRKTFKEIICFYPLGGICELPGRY
Description: (1) Construction of Rat MC4 Receptor-Expressing Vector
A rat MC4 receptor gene (GenBank Accession No.: NM_013099.3) was introduced into an expression vector pcDNA™ 3.1N/V5-His TOPO (registered trademark) (Thermo Fisher Scientific Inc.).
(2) Construction of Cells Transiently Expressing Rat MC4 Receptor
An expression vector for a rat MC4 receptor was introduced into FreeStyle™ 293-F cells (Thermo Fisher Scientific Inc.). For the introduction, electroporation was employed. That is, 1×10^7 FreeStyle™ 293-F cells were suspended in 80 μL of an electroporation buffer (Thermo Fisher Scientific Inc.), and 20 μg of the expression vector was added thereto. The resultant was put into a cuvette (OC-100 Processing Assembly, MaxCyte, Inc.) and electroporated with MaxCyte STX (registered trademark) (MaxCyte, Inc.). The cells were cultured for a day, suspended in a Cell Banker (registered trademark) 1 (TAKARA BIO INC. or JUJI FIELD Inc.), and stored frozen until they were used.
(3) Measurement of Amount of cAMP Production
Measurement was carried out in accordance with the attached instructions, using a LANCE (registered trademark) Ultra cAMP Kit (PerkinElmer, Inc.). That is, after dissolution in DMSO, the test compound (a final concentration of 1 pM to 30 μM) diluted with an assay buffer (Hank's balanced salt solution, 5 mM HEPES, 0.5 mM IBMX, 0.1% bovine serum albumin, pH 7.4), or α-MSH (Bachem Inc., a final concentration of 1 pM to 30 μM) was added to OptiPlate-384 (PerkinElmer, Inc.). Furthermore, the suspension of the cells transiently expressing the rat MC receptor that was prepared using the assay buffer was added thereto at 1,000 cells/well, and then left to stand at room temperature for about 1 hour. Thereafter, an Eu-cAMP tracer solution and an ULight™-anti-cAMP solution were added thereto, and the resulting solution was left to stand at room temperature for about 1 hour. The amount of cAMP was calculated using EnVision (registered trademark) (PerkinElmer Inc).
For the agonistic activity, an efficacy (EC50 (μM)) was calculated by a non-linear regression method with a Sigmoid-Emax model, by defining the maximum reaction using α-MSH as 100% and the reaction using a vehicle alone as 0%, respectively.

[3] = male Wistar rats, urethane anesthesia, intravenous, dose giving 40% inhibition of phenylephrine-induced urethral pressure ΔAUC

SMILES	EC50 [2] [nM]	ED40 [1, 3] [mg/kg]	ED40 ([1]; iv) [mg/kg]
CC(=O)N[C@@H](CC(C)C)C(=O)N1CCN(C(=O)[C@@H]2CN(C(C)(C)C)C[C@H]2c2ccc(Cl)cc2F)C[C@H]1C [Example 5]	3.3	–	25
CC(=O)N[C@H](C(=O)N1CCN(C(=O)[C@@H]2CN(C(C)(C)C)C[C@H]2c2ccc(F)cc2F)[C@@H](C)C1)C1CCCCC1.Cl [Example 6, N-{(1S)-2-[(3S)-4-{[(3S,4R)-1-tert-butyl-4-(2,4-difluorophenyl)pyrrolidin-3-yl]carbonyl}-3-methylpiperazin-1-yl]-1-cyclohexyl-2-oxoethyl}acetamide monohydrochloride]	16	46	–
CC(=O)N[C@@H](CC(C)(C)C)C(=O)N1C[C@H](C)N(C(=O)C2CN(C(C)(C)C)CC2c2ccc(F)cc2)C[C@H]1C.Cl (stereo partly shown) [Example 11]	10	28	–

Further compounds by falling EC50 [2], results first:

EC50 [2] [nM]	SMILES	ED40 [1, 3] [mg/kg]	ED40 ([1]; iv) [mg/kg]
4.7	CC(=O)N[C@@H](CC(C)(C)C)C(=O)N1CCN(C(=O)[C@@H]2CN(C(C)(C)C)C[C@H]2c2ccc(F)cc2F)[C@@H](C)C1.Cl [Example 8]	15	–
2	CC(=O)N[C@@H](CC(C)(C)C)C(=O)N1C[C@H](C)N(C(=O)[C@@H]2CN(C(C)(C)C)C[C@H]2c2ccc(F)cc2F)C[C@H]1C.Cl [Example 4, N-{(2S)-1-[(2R,5S)-4-{[(3 S,4R)-1-tert-butyl-4-(2,4-difluorophenyl)pyrrolidin-3-yl]carbonyl}-2,5-dimethylpiperazin-1-yl]-4,4-dimethyl-1-oxopentan-2-yl}acetamide monohydrochloride]	11	–
